The record followed here is US20240315991A1, “USES OF HNF4 ALPHA AGONISTS” (Sanford Burnham Prebys Medical Discovery Institute, priority 2023, published 2024).

The subject of series [1] is PPARγ mRNA. The series is described as follows: RT-PCR of mouse liver, PPARγ. In kind it is in vivo. As to conditions: HFD+NCT vs HFD, to the level of mice on normal chow, FIG. 3N. The protocol:
NCT oral administration. Four-week-old male C57BL/6J (JAX cat #000664) mice were purchased from Jackson laboratory and were maintained in a 12 h light/dark cycle throughout the experiment. Prior to the experiments, mice were acclimated for 2 weeks. Six-week-old mice with similar body weights were randomized to a normal diet (NC), a high fat diet (HFD) (Research Diets, cat #D12492 60 kcal % fat) or HFD containing 4000 ppm NCT (HFD+NCT) (Research Diets, 60 kcal % fat+4000 ppm NCT), which was calculated to provide approximately 400 mg/kg/d NCT. HFD chow containing NCT was made with gray dye to distinguish it from regular HFD chow that had green dye. Mice for each treatment group were placed in separate cages. Equal amounts of fresh chow were provided every week to all mice. Body weight gain and food intake were measured every week for 10 weeks. After 10 weeks of chow treatment, mice were sacrificed for analysis. […]
RT-PCR. […] Quantitative real time PCR (RT-PCR) analysis was performed using SYBR® Select Master Mix (Applied Biosystems) and an ABI 7900HT thermal cycler (Applied Biosystems, Thermo Fisher Scientific). Ct values were normalized to 18s rRNA and are expressed as fold change over samples from mice fed NC or cultured human hepatocytes without NCT.

The test system of series [2] is C57BL/6 mice fed high fat diet (HFD). As to the kind of experiment: HFD induced weight gain and hepatic steatosis, NCT in HFD chow for 10 weeks. In kind it is in vivo. The protocol: (§1) NCT oral administration. Four-week-old male C57BL/6J (JAX cat #000664) mice were purchased from Jackson laboratory and were maintained in a 12 h light/dark cycle throughout the experiment. Prior to the experiments, mice were acclimated for 2 weeks. Six-week-old mice with similar body weights were randomized to a normal diet (NC), a high fat diet (HFD) (Research Diets, cat #D12492 60 kcal % fat) or HFD containing 4000 ppm NCT (HFD+NCT) (Research Diets, 60 kcal % fat+4000 ppm NCT), which was calculated to provide approximately 400 mg/kg/d NCT. HFD chow containing NCT was made with gray dye to distinguish it from regular HFD chow that had green dye. Mice for each treatment group were placed in separate cages. Equal amounts of fresh chow were provided every week to all mice. Body weight gain and food intake were measured every week for 10 weeks. After 10 weeks of chow treatment, mice were sacrificed for analysis. All animal experiments were approved by the Institutional Animal Care and Use Committee (IACUC) of the Sanford Burnham Prebys Medical Discovery Institute in accordance with national regulations. Sample size was chosen based on the prior study of NCT delivered by IP injection.
Sample collection. Mouse samples were collected as described previously. Briefly, on the final day of treatment mice received dextrose (3 g/kg of body weight) by IP injection to stimulate insulin secretion, which inhibits FFA release from adipocytes, leaving liver-derived FFA as the major source of circulating FFA. One hour later, blood samples were collected via retro-orbital bleeding and mice were euthanized using pentobarbital. Mice were dissected aseptically and liver, epididymal fat, and body weights were measured and pictures taken. Dissected liver samples were washed immediately in sterile cold PBS and cut into small pieces. Half of the liver samples were snap frozen using liquid nitrogen and stored at −80° C. for RNA, protein isolation, and liver lysate preparations. The other half were fixed in 4% of cold paraformaldehyde (PFA, Santa Cruz Biotechnology, USA) and processed for histomorphometry and immunofluorescence.
Oil Red O staining (in vivo) and analysis. Oil red O staining was performed as described previously. Slides containing frozen liver tissue sections from mice were air dried for 10-20 min followed by rehydration in distilled water. Sections were immersed in absolute propylene glycol (Cat #151957, MP Biomedicals, LLC, USA) for 2 min followed by 0.5% in Oil red O solution (Cat #K043, Poly Scientific R&D, USA) for 2 h. Slides were then differentiated in 85% propylene glycol solution, washed with dH2O for 2 h, and mounted using glycerin jelly mounting medium. All slides were scanned at a magnification of ×20 using the Aperio Scanscope FL system (Aperio Technologies Inc., Vista, CA, USA). The liver area stained with oil red O was measured using image J software as described, with some modifications as follow, Oil red O-stained liver images were opened in Image J software. Using the Analyze>Set Scale command, the scale bar of the images was set to 200 μm. RGB images were then converted into grayscale images using the Image>Type>RGB Stack command and were split into red, blue and green channels. Using the Image>Adjust>Threshold command, the threshold was manually set to highlight the Oil red O-stained lipid droplets in the green channel. The same threshold was used for all the images in all treatment groups and the % oil red O-stained area was obtained using the Analyze->Measure tool command. Fold change was calculated by normalizing the values to images from mice fed normal chow.
Triglyceride analysis. The TG level in mouse liver, serum, and stool was measured according to manufacturer's instructions using the Triglyceride calorimetric Assay Kit (Cat #10010303, Cayman Chemicals, USA). Liver and stool TG was normalized with liver and stool weight, respectively. Fold change was calculated by normalizing to values from mice fed NC. […]

Series [3] deals with total cellular nicotinamide adenine dinucleotide (NAD). As to the kind of experiment: Nicotinamide adenine dinucleotide assay in liver lysate. In kind it is in vivo, mouse. Particulars: HFD+NCT vs HFD, 10 weeks. The protocol:
as §1
Nicotinamide adenine dinucleotide assay. Total NAD level in liver lysate was analyzed according to manufacturer's instructions using a calorimetric NAD+/NADH assay kit (Cat #MET-5014, Cell Biolabs, Inc. USA). […]

For series [4], the system named is SDHA. The series is described as follows: Western blotting of liver, SDHA. In kind it is in vivo, mouse. As to conditions: HFD+NCT vs HFD, FIGS. 3D-3F. The protocol:
as §1
Western blotting. Mouse liver extracts were prepared by incubation in RIPA buffer (Invitrogen) containing protease inhibitors (Calbiochem, SanDiego, CA). Protein was quantified by BCA assay (Thermo Scientific). […]
Background: A western blot detects proteins with antibodies after separation by electrophoresis.

Series [5] has as its system mitochondrial fatty acid oxidation (FAO) activity. The series is described as follows: Fatty acid oxidation assay in liver lysate. It counts as in vivo, mouse. The method, then: as §1
Fatty acid oxidation assay. FAO in liver lysate was measured according to manufacturer's instructions using a calorimetric assay kit (Cat #E-141, Biomedical Research Service Center, State University of New York, Buffalo, NY).
Thus, the effect of NCT on FAO appeared to be a secondary rather than primary effect.

Where [6] appears, read: HFD containing 4000 ppm NCT, end of the experiment at 10 weeks.
The mark [7] stands for this setting: mice fed HFD containing NCT vs HFD alone.
[8] abbreviates: liver lysate, HFD+NCT vs HFD, 10 weeks.

Entries after “also recorded” stand apart in the source; their conditions may differ.

Regarding `O=C(/C=C/c1ccc(O)c(O)c1)NCCc1ccc(O)cc1` [NCT, N-trans caffeoyltyramine], the “PPARγ expression in liver” value in series [1] is given as “reduce”. The “body weight compared with mice fed HFD alone” value in series [2] (C57BL/6 mice, HFD containing 4000 ppm NCT, 10 weeks) was “substantially less; also recorded: weighed less”. The “week at which lower body weight than HFD alone became evident” value in series [2] (HFD containing 4000 ppm NCT) is reported as 5 week. Also, in series [2] (setting [6]), the “body weight less than mice fed HFD” value is recorded as about 10 g and the “difference in body weight vs mice fed HFD” value is 35-40%. In addition, in series [2] (HFD+NCT vs HFD, 10 weeks), the “Oil Red O staining of liver” value was “decreased”, the liver redness result is on record as “increase; also recorded: redder”, the liver size entry is reported as “reductions” and the liver weight entry is recorded as “lower”. In addition, in series [2] (HFD+NCT vs HFD, 10 weeks), the obesity result is recorded as “markedly less obese”, the subcutaneous fat entry is on record as “substantially less” and the visceral adiposity entry was “reductions”. In series [2] (HFD+NCT vs HFD, 10 weeks, normalized to liver weight), the “hepatic TG level” value is “decreased”. Moreover, the “epididymal fat pad weight” value in series [2] (HFD+NCT vs HFD, end of study, normalized with total body weight) is given as “no change”. For the same compound, the “toxicity from NCT consumption” value in series [2] (mice fed HFD containing NCT) is given as “no evidence of any toxicity”. In addition, in series [2] (setting [7]), the mitochondrial mass result is “increased”. Further, the “total cellular NAD in liver” value in series [3] is recorded as “increased; also recorded: substantial increase”. Besides, in series [4], the “SDHA protein level in liver” value was “reverse the depression”. In series [5] (setting [8]), the “FAO activity in the presence of octanoyl CoA” value is recorded as “increase”, the “baseline FAO activity in the absence of octanoyl CoA” value is “increase” and the “overall FAO activity in the assay” value is “unchanged; also recorded: non-significant”. In addition, the fatty acid oxidation result in series [5] (setting [7]) was “increased”.
